Counter-ions that a name gives are not always drawn. Like-named read-outs stand apart in the source and are kept apart here.
Tests used:
[1] = tested on: male mice; test: Acute toxicity after oral administration; type: in vivo
Description: Acute toxicity was determined two weeks after oral administration of 4000 mg/kg to male mice. Four mice (denominator) are used in each group and the dead numbers are given as the numerator. The compounds of the present invention show little, if any, toxicity.

[2] = tested on: SRS-A (slow reacting substance of anaphylaxis) contraction of ileum; test: Anti-SRS-A action using ileus of guinea pigs; type: cell-based, Hartley strain male guinea pigs; conditions: Cavia porcellus, 5 min, 1/1000 mM; guinea pig ileum; SRS-A 20 units; compound five minutes before; read-out: 1/1000 mM SRS-A Inhibition Ratio %
Summary of the method: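 Ileum from male Hartley guinea pigs (300 to 350 g) in oxygenated Tyrode with 10^-7 g/ml atropine and 10^-6 g/ml pyrilamine, contracted by 20 units SRS-A. Compound added five minutes before; isotonic contraction height compared with SRS-A alone.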

[3] = tested on: passive cutaneous anaphylaxis (DNP-As homocytotropic antiserum); test: passive cutaneous anaphylatic assay (PCA) in rats; type: in vivo, Wistar strain rats; conditions: Rattus norvegicus, po, 1 h, 10 mg/kg orally, one hour before antigen, read-out: PCA Inhibition Ratio %
Summary of the method: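 Wistar rats were sensitised intradermally with diluted DNP-As homocytotropic antiserum and challenged 72 h later with i.v. DNP-As plus Evans Blue. Compounds were given orally at 10 mg/kg 1 h before antigen. Dye extracted from skin sites 30 min post-challenge gave inhibition relative to controls.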

[4] = tested on: carrageenin edema; test: Carrageenin edema at the hind foot of rats; type: in vivo, SD-strain rats; conditions: Rattus norvegicus, po, 3 h, 200 mg/kg per os, one hour before carrageenin; foot volume three hours after; read-out: % Inhibition (carrageenin edema)
Description: The anti-inflammatory action of the compounds of the present invention were evaluated by measuring the inhibition against carrageenin edema as set forth below. Carrageenin edema at the hind foot of rats: Experimental method. SD-strain rats of body weights of around 150 grams were used, each group consisting of five rats. A solution (0.1 ml) of 0.5% carrageenin dissolved in physiological saline water was subcutaneously injected into the right hind foot pat of the rats and, one hour prior to the injection of carrageenin, 200 mg/kg of test compound was given per os. Foot volumes of the rats before the carrageenin treatment and those of three hours after the treatment were measured and the differences were compared with those of the control group to adopt as a target of the effect of the compounds.

[5] = tested on: platelet aggregation induced by ADP, collagen and AA; test: Action against Platelet Coagulation (aggregation in platelet rich plasma of rabbits); type: cell-based, Male rabbits; conditions: Oryctolagus cuniculus; for inhibition at 100 µM: final concentration 10^-4 M; for inhibition at 10 µM: final concentration 10^-5 M; for inhibition at 1 µM: final concentration 10^-6 M
Description: Action against Platelet Coagulation was determined as follows: Male rabbits with body weights of 3 kg or around were used. Blood was taken from their carotid artery and, immediately thereafter, 1/10 volume (to the blood) of 3.8% aqueous solution of sodium citrate was added thereto. The mixture was centrifuged at room temperature (400 g; 10 minutes) to give platelet rich plasma (abbreviated as PRP: containing 5×10^5 platelets per mm^3). The PRP was then placed into a cell for platelet coagulation meter (Niko Bioscience), stirred, 5 microliters of test compound solution in dimethyl sulfoxide was added and, one minute thereafter, 5 micromolar of ADP, 10 micrograms/ml of collagen or 25 microliters of arachidoic acid (AA) was added thereto to observe changes of extinctions. From the maximum coagulation value at the time of administration the of test compound against that at the time of the solvent addition, inhibition was calculated and the effect of the compounds against the platelet coagulation was determined.

[6] = cited from earlier work
[7] = AA 150 μM, read-out: Inhibition (%) of platelet aggregation, AA (150 μM)
[8] = ADP 5 μM, read-out: Inhibition (%) of platelet aggregation, ADP (5 μM)
[9] = collagen 10 μg/ml, read-out: Inhibition (%) of platelet aggregation, Collagen (10 μg/ml)
[10] = 4000 mg/kg oral, male mice, two weeks, dead/group of four

Row | Structure (SMILES) | Lethal Ratio ([1]; mouse, in vivo) | inhibition at 1 µM [2] [%] | inhibition in vivo at 10 mg/kg [3] [%] | inhibition in vivo at 200 mg/kg [4] [%] | other results
1 | COC(=O)c1ccc2[nH]c(-c3ccccc3I)cc(=O)c2c1 [Example 28] | 0/4 | 55.6 | 19.6 | 15.9 | 
2 | COc1ccc2c(c1)c(CC(=O)O)c(C)n2C(=O)c1ccc(Cl)cc1 [Indomethacin] |  |  |  |  | inhibition at 100 µM [5, 7]: 100%; inhibition at 10 µM [5, 7]: 100%; inhibition at 1 µM [5, 7]: 1.6%; inhibition at 100 µM [5, 8]: 2.6%; inhibition at 100 µM [5, 9]: 100%; inhibition at 10 µM [5, 9]: 100%; inhibition at 1 µM [5, 9]: 19.6%
3 | O=C(O)c1cccc2c(=O)cc(-c3ccccc3Cl)[nH]c12 [Example 85] | 0/4 | 27.9 | 17 |  | 
4 | O=C(O)c1cc(=O)c2c(OCC(O)COc3cccc4oc(C(=O)O)cc(=O)c34)cccc2o1 [Sodium chromoglicate] |  |  |  |  | effect on oral administration [6]: does not show any effect on oral administration
5 | CCOC(=O)c1cccc2c(O)cc(-c3ccccc3Cl)nc12 [Example 100, Ethyl 2-(2-chlorophenyl)-4-hydroxyquinoline-8-carboxylate hydrochloride] |  | 70.5 | 29.7 |  | Lethal Ratio [1, 10]: 0/4
6 | CCOC(=O)c1cccc2c(=O)cc(-c3ccc(Cl)cc3Cl)[nH]c12 [Example 89] | 0/4 | 55.6 | 26.2 |  | 
7 | COC(=O)c1ccc2[nH]c(-c3ccccc3OC)cc(=O)c2c1 [Example 56] | 1/4 | 25.2 | 22.3 |  | 
8 | Cc1ccccc1-c1cc(=O)c2cc(C(=O)O)ccc2[nH]1 [Example 42] | 0/4 | 17.4 | 43.2 | 11.8 | 
9 | CCOC(=O)c1cccc2c(=O)cc(-c3ccc(C)cc3C)[nH]c12 [Example 94] | 1/4 | 78.6 | 25.7 |  | 
10 | CCOC(=O)c1cccc2c1N=C(c1ccccc1Cl)CC2=O [Example 83, ethyl 2-(2-chlorophenyl)-4-quinolone-8-carboxylate] |  | 75.9 | 28.5 | 22.5 | Lethal Ratio [1, 10]: 0/4; inhibition at 100 µM [5, 7]: 100%; inhibition at 10 µM [5, 7]: 3.3%; inhibition at 100 µM [5, 8]: 18.5%; inhibition at 100 µM [5, 9]: 100%; inhibition at 10 µM [5, 9]: 14%
11 | CCCCCCn1c(-c2ccccc2)cc(=O)c2cc(C(=O)O)ccc21 [Example 20] | 1/4 | 83.9 | 26.4 | 10.6 | 
12 | O=C(O)c1cccc2c(=O)cc(-c3ccccc3Cl)[nH]c12 [Example 84] |  |  |  |  | Lethal Ratio [1, 10]: 0/4
